# Measured values: patent US7217810B2, “High level production of arbutin in green plants and microbes” (E. I. du Pont de Nemours and Company, priority 2003, dated 2007)
# How the values were obtained:
# [1] = biological target: T1, UGT72B1 (Arabidopsis thaliana, UniProt Q9M156); settings: highest of the benzoic acid derivatives analyzed; cited from earlier work
# T1 construct: host or cells: E. coli (per the cited work)
# T1 sequence (Q9M156 1-480): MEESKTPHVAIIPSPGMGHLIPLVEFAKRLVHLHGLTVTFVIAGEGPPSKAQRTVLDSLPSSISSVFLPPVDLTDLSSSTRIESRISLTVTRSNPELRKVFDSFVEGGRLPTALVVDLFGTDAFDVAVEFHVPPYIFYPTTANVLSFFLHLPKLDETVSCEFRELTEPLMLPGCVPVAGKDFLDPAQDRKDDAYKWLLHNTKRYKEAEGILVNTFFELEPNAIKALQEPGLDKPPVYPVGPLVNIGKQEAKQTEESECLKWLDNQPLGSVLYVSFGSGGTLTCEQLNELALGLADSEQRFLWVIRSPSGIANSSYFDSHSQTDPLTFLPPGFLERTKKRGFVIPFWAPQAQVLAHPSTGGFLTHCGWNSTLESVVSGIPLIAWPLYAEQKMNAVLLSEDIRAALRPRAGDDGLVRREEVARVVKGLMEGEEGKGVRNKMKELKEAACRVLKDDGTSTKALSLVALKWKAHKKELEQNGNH
# [2] = biological target: T2, arbutin synthase (Rauvolfia serpentina, UniProt Q9AR73); settings: 50° C., converted from cited Vmax using 51,793.01 Da
# Description: (§1) This turnover number was calculated using a molecular weight of the UGT72B1 enzyme of 53,015.33 Da calculated with the PEPIDESORT software package of the GCG.
# [3] = biological target: UGT72B1 (Arabidopsis thaliana, UniProt Q9M156, E284K/I310V/T253S)
# Description: The enzyme was diluted to a final concentration of 0.115 ng/μL using 50 mM Tris HCl (pH 7.5), 1 mM MgCl2 and 2 mM DTT. […] Arbutin formation was quantitated by HPLC analysis as follows: 10 μL of analyte were separated on a Nova-Pak® C18 column (60 Å pore size, […]) using a gradient from 2% acetonitrile, 1.5% phosphoric acid (solvent A) to 48% acetonitrile, 1.5% phosphoric acid (solvent B). The following solvent gradient is applied: 0–5 min 100% solvent A; 5–20 min linear gradient of 0–100% solvent B; 21–25 min 100% solvent A. Arbutin was detected at 221 nm absorbance wavelength and quantitated using calibration curves generated with a commercially available standard of arbutin.
# The data was fitted to the Michaelis-Menten equation. […] In this plot, an estimate of the Km is provided as the slope of the line representing the linear regression curve through the points and the Vmax by the intercept of the regression curve with the y axis.
# as §1
# [4] = biological target: T2, arbutin synthase; settings: 50° C., 1 mM hydroquinone; cited from earlier work
# [5] = test system: Oc1ccc(O)cc1; assay: purified protein, by the assay type; settings: pH 7.5; 37.0 °C
# [6] = test system: O=C(O)c1ccc(O)cc1; assay: purified protein, by the assay type; settings: other: pHBA 0.2 to 400 μM, fitted to Michaelis-Menten equation; 25.0 °C
molecule,measurement,setting,value
"O=C(O)c1cc(O)ccc1O [2,5-dihydroxybenzoic acid]",specific activity,[1],11.72 pkat/μg protein
"Oc1ccc(O)cc1 [hydroquinone, 1,4-dihydroxybenzene]",turnover number,[2],1.4 s⁻¹
same,apparent Km,[3],~0.3 µM
same,hydroquinone concentration giving significant substrate inhibition,"[3]; Michaelis-Menten plot, FIG. 5",greater than 100 μM
same,Vmax with hydroquinone relative to Vmax with benzoic acid substrates,[3]; compared with Lim et al. values,~68 fold
same,apparent Vmax,"[3]; hydroquinone as substrate, 20 mM UDPG, 37° C., Hofstee plot",~796 pmol/sec/1 g
same,turnover number (Kcat),"[3]; hydroquinone as substrate, 37° C.",42 s⁻¹
same,Vmax,[4],26.32 pkat/μg
UGT72B1 (Arabidopsis thaliana; E284K/I310V/T253S),Km,[5],0.3 µM
pHBA 1-hydroxylase (Lodderomyces parapsilosis CDC317),Km,[6],0.31 µM
same,Vmax,[6],6.4 µmol/min/mg
